According to PMC3344862, “Structural and Mutational Studies on Substrate Specificity and Catalysis of Salmonella typhimurium D-Cysteine Desulfhydrase” (PLoS ONE, 2012):

Assays:
StDCyD [1] = target: T1, StDCyD (Salmonella enterica, UniProt Q8ZNT7); assay: X-ray crystallography, co-crystallization; type: binding
T1 construct: gene dcyD; 36 kDa, dimer in solution; PLP on Lys51
T1 sequence (Q8ZNT7 1-328): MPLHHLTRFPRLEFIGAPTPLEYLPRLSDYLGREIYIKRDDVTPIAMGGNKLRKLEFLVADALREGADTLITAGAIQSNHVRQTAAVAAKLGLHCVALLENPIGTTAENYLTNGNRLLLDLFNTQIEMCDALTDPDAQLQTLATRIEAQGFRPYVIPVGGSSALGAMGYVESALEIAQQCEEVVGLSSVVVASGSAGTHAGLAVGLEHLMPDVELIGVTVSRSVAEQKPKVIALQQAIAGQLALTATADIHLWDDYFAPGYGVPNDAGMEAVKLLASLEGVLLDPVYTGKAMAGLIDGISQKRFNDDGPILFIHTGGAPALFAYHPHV

StDCyD [2] = target: T1, StDCyD; assay: X-ray crystallography, crystal soak; UV-visible spectra; type: binding; details: covalent; external aldimine with PLP; 10 mM, about 2 min soak
StDCyD [3] = target: T1, StDCyD; assay: thermal melting; type: binding; details: 10 mM pyruvate; Tm without and with ligand; data not shown
StDCyD [4] = target: T1, StDCyD; assay: X-ray crystallography, crystals soaked with D-Cys or βCDA; type: binding; details: second site 4.0-6.0 Å from the active site (Arg222, Ser221); formed from D-Cys (4D8W) or βCDA (4D92)
StDCyD [5] = target: T1, StDCyD; assay: X-ray crystallography; absorbance maximum […] nm; type: binding; details: covalent; Schiff base with Lys51
StDCyD [6] = target: T1, StDCyD; assay: X-ray crystallography, co-crystallization with DCS or LCS; type: binding; details: active site, not covalently linked to Lys51; formed from PLP by DCS (4D9B) or LCS (4D9C)
[7] = target: the molecule itself; assay: SEC; analytical gel filtration of the purified protein

## NC1(C(=O)O)CC1 [ACC]
StDCyD [1]; covalent, external aldimine with PLP, not a substrate
  X-ray crystallography, co-crystallization: StDCyD cocrystallized with ACC (PDB code: 4D96) revealed that the ligand binds as an external aldimine

## N[C@H](CO)C(=O)O [D-Ser]
StDCyD [1]; active site, non-covalent, internal aldimine intact, poor substrate
  X-ray crystallography, co-crystallization: Structures of StDCyD-D-Ser (PDB code: 4D97) and StDCyD-L-Ser (PDB code: 4D99) complexes

## N[C@H]1CONC1=O [LCS]
StDCyD [2]
  X-ray crystallography, crystal soak; UV-visible spectra: Electron density observed at the active site was consistent with external aldimines of DCS or LCS

## N[C@@H]1CONC1=O [DCS]
StDCyD [2]
  X-ray crystallography, crystal soak; UV-visible spectra: Electron density observed at the active site was consistent with external aldimines of DCS or LCS

## CC(=O)C(=O)O [pyruvate]
StDCyD [3]
  Tm with ligand: 80 to 85 °C
StDCyD [4]
  X-ray crystallography, crystals soaked with D-Cys or βCDA: The modeled pyruvate is held by hydrogen bonding with Arg222 and Ser221

## N[C@@H](CO)C(=O)O [L-Ser]
StDCyD [1]; active site, non-covalent, internal aldimine intact, not a substrate
  X-ray crystallography, co-crystallization: Structures of StDCyD-D-Ser (PDB code: 4D97) and StDCyD-L-Ser (PDB code: 4D99) complexes

## Cc1ncc(COP(=O)(O)O)c(C=O)c1O [PLP]
StDCyD [5]
  X-ray crystallography; absorbance maximum 417 nm: PLP is bound by a Schiff base linkage to Lys51

## Cc1ncc(COP(=O)(O)O)c(CN)c1O [PMP]
StDCyD [6]
  X-ray crystallography, co-crystallization with DCS or LCS: PMP is not covalently linked to ε-amino group of Lys51

B1: Salmonella typhimurium D-cysteine desulfhydrase (enzyme, UniProt Q8ZNT7 1-328, looked up)
chain: T1 sequence (Q8ZNT7 1-328)
modifications: PLP bound by a Schiff base linkage to Lys51
notes: residues 1-328; Cloned in pRSET C; no cleavage of the tag is described; Small domain residues 48-161, large domain residues 1-47 and 162-328; also called StDCyD; DCyD; source: E. coli BL21 (DE3) Rosetta, purified (Ni-NTA, size exclusion chromatography)
[7]
  stoichiometry N: 2
